One cell line from the supplement of paper PMC10307832 can be followed below.

What all share (experiment): relative viability (nuclei count vs DMSO), 5 days (fraction); higher = more cells survive
Compound in the assay “AZ628 + Vorinostat”: CC1=C(C=C(C=C1)NC(=O)C2=CC(=CC=C2)C(C)(C)C#N)NC3=CC4=C(C=C3)N=CN(C4=O)C [AZ628] + O=C(CCCCCCC(=O)Nc1ccccc1)NO [Vorinostat] (partner 1 µM)
A digest of the protocol: (§1)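 Lung cancer cell lines in 1536-well plates were dosed by pin tool the day after seeding, either with one drug alone or with a fixed anchor-drug dose plus five library-drug doses (not always all listed) in √10 steps. After 5 days, cells were fixed and their nuclei stained in one step (final 0.05% Triton X-100, 1% formaldehyde, 1 ug/ml Hoechst), then counted on 4× images. Relative viability is the nuclei count in treated wells divided by that in vehicle wells. Values are medians of duplicate plates.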

Compound in assay [1]: C[As](C)SC[C@H](NC(=O)CC[C@H](N)C(=O)O)C(=O)NCC(=O)O [Darinaparsin] + O=C(CCCCCCC(=O)Nc1ccccc1)NO [Vorinostat] (partner 1 µM)
A digest of the protocol: as §1

Compound in assay [2]: C[As](C)SC[C@H](NC(=O)CC[C@H](N)C(=O)O)C(=O)NCC(=O)O [Darinaparsin] + CS(=O)(=O)N1CCN(Cc2cc3nc(-c4cccc5[nH]ncc45)nc(N4CCOCC4)c3s2)CC1 [Pictilisib] (partner 1 µM)
A digest of the protocol:
as §1

Compound in the assay “QS11 + Luminespib”: C1CC2=C(C1)C=C(C=C2)OC3=NC(=C4C(=N3)N(C=N4)CC5=CC=C(C=C5)C6=CC=CC=C6)N[C@@H](CC7=CC=CC=C7)CO [QS11] + CCNC(=O)c1noc(-c2cc(C(C)C)c(O)cc2O)c1-c1ccc(CN2CCOCC2)cc1 [Luminespib] (partner 0.01 µM)
A digest of the protocol:
as §1

Consider LC-2-ad, for which the relative viability with AZ628 + Vorinostat (first compound 0.08 µM) was found to be 0.78; in the assay with AZ628 + Vorinostat (first compound 0.253 µM), 0.865; with AZ628 + Vorinostat (first compound 0.8 µM), 0.796; with AZ628 + Vorinostat (first compound 2.53 µM) it was 0.74; in the assay with AZ628 + Vorinostat (first compound 8 µM) it was 0.656; in assay [1] (first compound 0.08 µM) it was 0.805. In addition, the relative viability in assay [1] (first compound 0.8 µM) was 0.762; in assay [1] (first compound 2.53 µM), 0.657; in assay [1] (first compound 8 µM), 0.829; in assay [2] (first compound 0.08 µM) it was 0.564; in assay [2] (first compound 0.8 µM), 0.456; in assay [2] (first compound 2.53 µM), 0.32. For the same cell line, the relative viability in assay [2] (first compound 8 µM) is 0.533; with QS11 + Luminespib (first compound 0.08 µM), 0.851; in the assay with QS11 + Luminespib (first compound 0.253 µM) it was 0.981; with QS11 + Luminespib (first compound 0.8 µM), 0.857; in the assay with QS11 + Luminespib (first compound 2.53 µM), 0.956; with QS11 + Luminespib (first compound 8 µM), 1.17.
